This assay concerns the target LSD-1 enzyme (Homo sapiens (Human), UniProt O60341). Nature of the assay: LANCE LSD1/KDM1A demethylase assay (LSD1 histone demethylase biochemical assay). As to conditions: 1 nM LSD-1 enzyme, 1 hour preincubation at 25° C., 0.4 μM Biotin-labeled Histone H3 peptide substrate.

The term IC50 denotes the point on the concentration scale where inhibition reaches its midpoint. Read a high IC50 as weaker potency.

Take `COc1ccc(-c2c(-c3ccc(C#N)cc3)cc(OC[C@@H]3CCCN(C)C3)c3cncn23)cn1` [Example 72, 4-(5-(6-methoxypyridin-3-yl)-8-{[(3R)-1-methylpiperidin-3-yl]methoxy}imidazo[1,5-a]pyridin-6-yl)benzonitrile]: the IC50 is ≤ 0.05 µM.
Under `CN(C)C1CCN(c2nc(-c3ccc(C#N)cc3)c(-c3cnc4ccccc4c3)n3cncc23)CC1` [Example 144, 4-{8-[4-(dimethylamino)piperidin-1-yl]-5-quinolin-3-ylimidazo[1,5-a]pyrazin-6-yl}benzonitrile] stands ≤ 0.05 µM; under `COc1ncc(-c2c(-c3ccc(C#N)cc3)nc(N3CCC(N(C)C)CC3)c3cncn23)cc1C` [Example 93, 4-[8-[4-(dimethylamino)piperidin-1-yl]-5-(6-methoxy-5-methylpyridin-3-yl)imidazo[1,5-a]pyrazin-6-yl]benzonitrile], ≤ 0.05 µM.
For `Cc1cc(-c2c(-c3ccc(C#N)cc3)cc(OC[C@@H]3CCCN(C)C3)c3cncn23)ccc1CO` [Example 79, 4-(5-[4-(hydroxymethyl)-3-methylphenyl]-8-{[(3R)-1-methylpiperidin-3-yl]methoxy}imidazo[1,5-a]pyridin-6-yl)benzonitrile] the value was ≤ 0.05 µM.
Under `Cc1ccc(-c2c(-c3ccc(C#N)c(F)c3)cc(OC[C@@H]3CCNC3)c3cncn23)cc1` [Example 4, 2-fluoro-4-{5-(4-methylphenyl)-8-[(3R)-pyrrolidin-3-ylmethoxy]imidazo[1,5-a]pyridin-6-yl}benzonitrile] stands ≤ 0.05 µM.
As to `Cc1cc(-c2c(-c3ccc(C#N)cc3)nc(N3CCC(N(C)C)CC3)c3cncn23)cnc1C` [Example 89, 4-[8-[4-(dimethylamino)piperidin-1-yl]-5-(5,6-dimethylpyridin-3-yl)imidazo[1,5-a]pyrazin-6-yl]benzonitrile], the IC50 was ≤ 0.05 µM.
For `CCC1CC=C(c2c(-c3ccc(C#N)cc3)cc(OC[C@@H]3CCNC3)c3cncn23)CC1` (stereo partly drawn) [Example 9, 4-{5-(4-ethylcyclohex-1-en-1-yl)-8-[(3R)-pyrrolidin-3-ylmethoxy]imidazol[1,5-a]pyridin-6-yl}benzonitrile] the value was ≤ 0.05 µM.
